Like-named read-outs stand apart in the source and are kept apart here.
How the values were obtained:
[1] = system: spontaneous focal glomerulonephritis of the MNS rats; test: spontaneous focal glomerulonephritis in Milan Normotensive Strain (MNS) rats; format: in vivo, rat
Protocol: Moreover, in the spontaneous focal glomerulonephritis of the MNS rats, FCE 22178 was administered at the […] not treated group.
Sclerotic glomeruli show massive deposition of PAS-stained material.
Flattening and fusion of the foot processes, as well as formation of blebs and of electron dense lysosomes, together with the frequent detachment of the cell from the GMB is regarded to be related to the massive leakage of proteins through the glomerulus.

[2] = system: doxorubicin induced nephrosis; test: doxorubicin induced nephrosis in rats (oral treatment); format: in vivo, rat; conditions: 50 mg/kg b.i.d. oral
Protocol: The compound 1,2-dihydro-3-(1-imidazolyl)-6-carboxy-naphthalene (internal code FCE 22178) was orally administered, for doxorubicin induced nephrosis, to rats at a dosage of 50 mg/kg b.i.d. for 7 days starting from the 21st day after doxorubicin injection. A reduction in both proteinuria (from 1018±102 to 751±49 mg/24 h p<0.005) and creatinine serum levels (from 1.85±0.26 to 0.97±0.009 mg/dl p<0.001) was observed.
Moreover, in the spontaneous focal glomerulonephritis of the MNS rats, FCE 22178 was administered at the dosage of 50 mg/kg p.o. die+100 mg/kg/die in drinking water starting from the first month of age and all along the life of the animal and in comparison with a not treated group.
Compound 1,2-dihydro-3-(1-imidazolyl)-6-carboxynaphthalene, internal code FCE 22178, for instance, in this model at the oral dosage of 50 mg/kg b.i.d. for 7 days starting from the 21st after doxorubicin injection lowered triglycerides serum levels from 783±152 to 481.8±84 mg/dl.

glomerular TxA2 synthase = target: T1, glomerular TxA2 synthase (Rattus norvegicus, UniProt P49430); test: in vitro TxA2 synthase inhibiting activity in isolated glomeruli (TxB2 by RIA); format: biochemical
T1 construct: from tissue; host or cells: isolated glomeruli of rat kidney (remnant kidney and sham operated rats)
T1 sequence (P49430 1-533): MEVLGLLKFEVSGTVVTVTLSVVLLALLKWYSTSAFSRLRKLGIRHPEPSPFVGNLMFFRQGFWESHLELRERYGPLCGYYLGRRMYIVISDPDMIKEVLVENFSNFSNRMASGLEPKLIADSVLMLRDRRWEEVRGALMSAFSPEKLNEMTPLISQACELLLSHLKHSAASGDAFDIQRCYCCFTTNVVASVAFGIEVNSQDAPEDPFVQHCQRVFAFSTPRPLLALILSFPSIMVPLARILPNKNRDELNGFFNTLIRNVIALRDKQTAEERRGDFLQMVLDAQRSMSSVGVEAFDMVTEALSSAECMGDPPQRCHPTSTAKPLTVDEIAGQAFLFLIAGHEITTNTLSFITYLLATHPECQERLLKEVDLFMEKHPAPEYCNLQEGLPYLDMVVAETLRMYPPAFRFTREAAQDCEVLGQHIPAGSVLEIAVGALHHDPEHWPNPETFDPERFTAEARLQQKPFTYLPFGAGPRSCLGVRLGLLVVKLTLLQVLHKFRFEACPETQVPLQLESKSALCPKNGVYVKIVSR
Protocol: (§1) Charles River C.D. male rats of 6 weeks of age were used for this experiment. […] Four weeks after the second operation the blood pressure was measured and the rats were placed in metabolic cages for evaluation of proteinuria, measured by the method of Lowry. Only the animals with a blood pressure ≥170 mm Hg and an urinary protein excretion ≥100 mg/day were used. Comparative experiments were performed using sham operated rats. Also the in vitro TxA2 synthase inhibiting activities in serum and in isolated glomeruli were studied and compared. Glomerula preparation was performed according to the method previously described and TxB2 was measured by RIA.

serum TxA2 synthase = target: T2, serum TxA2 synthase (Rattus norvegicus, UniProt P49430); test: in vitro TxA2 synthase inhibiting activity in serum (TxB2 by RIA); format: biochemical
T2 construct: from tissue; host or cells: rat blood / serum (remnant kidney and sham operated rats)
T2 sequence (P49430 1-533): T1 sequence (P49430 1-533)
Protocol: as §1

[3] = glomeruli of RRM (remnant kidney) rats, read-out: IC50, glomerular TxB2 production
[4] = serum of RRM (remnant kidney) rats, read-out: IC50, serum TxB2 production / TxA2 synthesis

O=C(O)c1ccc2c(c1)C=C(n1ccnc1)CC2 [FCE 22178, 1,2-dihydro-3-(1-imidazolyl)-6-carboxynaphthalene]
production of TxA2 (measured as TxB2 levels) in isolated glomeruli ([1]; 50 mg/kg p.o. die + 100 mg/kg/die in drinking water from first month of age, untreated 4.44±1.2 at 8 months, p<0.01): 2.77±0.53 ng/mg prot. | TxB2 in urine ([1]; 50 mg/kg p.o. die + 100 mg/kg/die in drinking water, pattern as in isolated glomeruli (greatly reduced)): The same pattern was observed in urine | total cholesterol ([1]; 14 months old rats treated for 2 months, from 223±36): 130.5 ± 12.2 mg/dL | phospholipids ([1]; 14 months old rats treated for 2 months, from 338.6±56): 197.8 ± 21 mg/dL | triglycerides ([1]; 14 months old rats treated for 2 months, from 399.6±105): 169.3 ± 26.1 mg/dL | glomerular filtration rate (GFR) ([1]; adult MNS rats, 50 mg/kg p.o. die + 100 mg/kg/die in drinking water, printed: 1210±38 in controls vs treated, p<0.01): 816±45 μl/min/g k.w. | proteinuria ([1]; adult MNS rats, 50 mg/kg p.o. die + 100 mg/kg/die in drinking water, vs 428.8±42.3 in controls, p<0.01): 237±30.3 mg/24 h | number of sclerotic glomeruli ([1]; light microscopy, aged (14 months) MNS rats, control 27%, p<0.05): 22% | entity of flattening and fusion of foot processes in non sclerotic glomeruli ([1]; ultrastructural investigation, treated vs untreated MNS rats): definitly lower in treated animals | creatinine serum levels ([2]; 7 days from 21st day after doxorubicin, from 1.85±0.26, p<0.001): 0.97 ± 0.009 mg/dL | triglycerides serum levels ([2]; 7 days from 21st day after doxorubicin, from 783±152): 481.8 ± 84 mg/dL | proteinuria ([2]; 7 days from 21st day after doxorubicin, from 1018±102, p<0.005): 751±49 mg/24 h | urine TxB2 levels ([2]; 7 days, from 20.3±2.5 ng/24 h): under the detection limit of the method | serum TxB2 levels ([2]; 7 days, from 536±55 ng/ml): 92 ± 8.3 ng/mL | selectivity for glomerular TxA2 synthase (vs serum) (glomerular TxA2 synthase; RRM rats, compared to OKYO46): greater selectivity for glomerular TxA2 synthase | IC50 (glomerular TxA2 synthase; [3]): 0.032 nM | IC50 (glomerular TxA2 synthase; glomeruli of control sham operated rats, read-out: IC5 (so in the source), glomeruli): 0.07 nM | IC50 (serum TxA2 synthase; [4]): 1.7 nM | IC50 (serum TxA2 synthase; serum of control sham operated rats, read-out: IC5 (so in the source), serum): 1 nM

Cl.O.O=C(O)/C=C/c1ccc(Cn2ccnc2)cc1 [OKYO46, (E)-3-[4-(1H-imidazol-1-ylmethyl)-phenyl]-2-propenoic acid monohydrochloride monohydrate, reference compound]
selectivity glomeruli vs serum (glomerular TxA2 synthase; control sham operated rats): losed his selectivity | IC50 (glomerular TxA2 synthase; [3]): 0.09 nM | IC50 (glomerular TxA2 synthase; glomeruli of control sham operated rats, read-out: IC50, glomeruli): 1 nM | IC50 (serum TxA2 synthase; [4]): 0.6 nM | IC50 (serum TxA2 synthase; serum of control sham operated rats, read-out: IC50, serum): 50000 nM
